# Results taken from publication PMC9562281.
# Experiment: On-resin ring-closing metathesis (C=C) of bis-alkenyl beta-(1,6)-hexaglucosides, Grubbs catalyst 20 mol% per cycle, Ar bubbling. Method B (8a-8d): Grubbs II, MW 60 C, 40 min per cycle, 6 cycles for 8a and 3 for 8b-8d. Method A (8e-8g): Grubbs I, 25 C, 60 min per cycle, 3 cycles
# Settings: the molecule shown is the open-chain precursor, 16 steps
compound,measurement,setting,value
"C=CCCCCO[C@@H]1[C@@H](OC(=O)c2ccccc2)[C@H](OC[C@H]2O[C@@H](OC[C@H]3O[C@@H](OC[C@H]4O[C@@H](OC[C@H]5O[C@@H](OC[C@H]6O[C@@H](OCCCCCN(Cc7ccc(OC)cc7[N+](=O)[O-])C(=O)OCc7ccccc7)[C@H](OC(=O)c7ccccc7)[C@@H](OC(=O)c7ccccc7)[C@@H]6OCc6ccccc6)[C@H](OC(=O)c6ccccc6)[C@@H](OCc6ccccc6)[C@@H]5OCCCCC=C)[C@H](OC(=O)c5ccccc5)[C@@H](OC(=O)c5ccccc5)[C@@H]4OCc4ccccc4)[C@H](OC(=O)c4ccccc4)[C@@H](OC(=O)c4ccccc4)[C@@H]3OCc3ccccc3)[C@H](OC(=O)c3ccccc3)[C@@H](OC(=O)c3ccccc3)[C@@H]2OCc2ccccc2)O[C@H](CO)[C@H]1OCc1ccccc1 [8g (from 5g, -(CH2)10-)]","ring closure, overall yield","34-membered ring, 1,2-dichloroethane, 3.0 h",17%
"C=CCCCCO[C@H]1[C@H](OCc2ccccc2)[C@@H](OC(=O)c2ccccc2)[C@H](OC[C@H]2O[C@@H](OCCCCCN(Cc3ccc(OC)cc3[N+](=O)[O-])C(=O)OCc3ccccc3)[C@H](OC(=O)c3ccccc3)[C@@H](OC(=O)c3ccccc3)[C@@H]2OCc2ccccc2)O[C@@H]1CO[C@@H]1O[C@H](CO[C@@H]2O[C@H](CO[C@@H]3O[C@H](CO[C@@H]4O[C@H](CO)[C@@H](OCc5ccccc5)[C@H](OCCC=C)[C@H]4OC(=O)c4ccccc4)[C@@H](OCc4ccccc4)[C@H](OC(=O)c4ccccc4)[C@H]3OC(=O)c3ccccc3)[C@@H](OCc3ccccc3)[C@H](OC(=O)c3ccccc3)[C@H]2OC(=O)c2ccccc2)[C@@H](OCc2ccccc2)[C@H](OC(=O)c2ccccc2)[C@H]1OC(=O)c1ccccc1 [8e (from 5e, -(CH2)8-)]","ring closure, overall yield","32-membered ring, 1,2-dichloroethane, 3.0 h",15%
"C=CCCCO[C@@H]1[C@@H](OC(=O)c2ccccc2)[C@H](OC[C@H]2O[C@@H](OC[C@H]3O[C@@H](OC[C@H]4O[C@@H](OC[C@H]5O[C@@H](OC[C@H]6O[C@@H](OCCCCCN(Cc7ccc(OC)cc7[N+](=O)[O-])C(=O)OCc7ccccc7)[C@H](OC(=O)c7ccccc7)[C@@H](OC(=O)c7ccccc7)[C@@H]6OCc6ccccc6)[C@H](OC(=O)c6ccccc6)[C@@H](OCc6ccccc6)[C@@H]5OCC=C)[C@H](OC(=O)c5ccccc5)[C@@H](OC(=O)c5ccccc5)[C@@H]4OCc4ccccc4)[C@H](OC(=O)c4ccccc4)[C@@H](OC(=O)c4ccccc4)[C@@H]3OCc3ccccc3)[C@H](OC(=O)c3ccccc3)[C@@H](OC(=O)c3ccccc3)[C@@H]2OCc2ccccc2)O[C@H](CO)[C@H]1OCc1ccccc1 [8c (from 5c, -(CH2)6-)]","ring closure, overall yield","30-membered ring, 1,2-dichloroethane, 2.0 h",15%
"C=CCCO[C@@H]1[C@@H](OC(=O)c2ccccc2)[C@H](OC[C@H]2O[C@@H](OC[C@H]3O[C@@H](OC[C@H]4O[C@@H](OC[C@H]5O[C@@H](OC[C@H]6O[C@@H](OCCCCCN(Cc7ccc(OC)cc7[N+](=O)[O-])C(=O)OCc7ccccc7)[C@H](OC(=O)c7ccccc7)[C@@H](OC(=O)c7ccccc7)[C@@H]6OCc6ccccc6)[C@H](OC(=O)c6ccccc6)[C@@H](OCc6ccccc6)[C@@H]5OCC=C)[C@H](OC(=O)c5ccccc5)[C@@H](OC(=O)c5ccccc5)[C@@H]4OCc4ccccc4)[C@H](OC(=O)c4ccccc4)[C@@H](OC(=O)c4ccccc4)[C@@H]3OCc3ccccc3)[C@H](OC(=O)c3ccccc3)[C@@H](OC(=O)c3ccccc3)[C@@H]2OCc2ccccc2)O[C@H](CO)[C@H]1OCc1ccccc1 [8b (from 5b, -(CH2)5-)]","ring closure, overall yield","29-membered ring, 1,2-dichloroethane, 2.0 h",10%
"C=CCO[C@@H]1[C@@H](OC(=O)c2ccccc2)[C@H](OC[C@H]2O[C@@H](OC[C@H]3O[C@@H](OC[C@H]4O[C@@H](OC[C@H]5O[C@@H](OC[C@H]6O[C@@H](OCCCCCN(Cc7ccc(OC)cc7[N+](=O)[O-])C(=O)OCc7ccccc7)[C@H](OC(=O)c7ccccc7)[C@@H](OC(=O)c7ccccc7)[C@@H]6OCc6ccccc6)[C@H](OC(=O)c6ccccc6)[C@@H](OCc6ccccc6)[C@@H]5OCC=C)[C@H](OC(=O)c5ccccc5)[C@@H](OC(=O)c5ccccc5)[C@@H]4OCc4ccccc4)[C@H](OC(=O)c4ccccc4)[C@@H](OC(=O)c4ccccc4)[C@@H]3OCc3ccccc3)[C@H](OC(=O)c3ccccc3)[C@@H](OC(=O)c3ccccc3)[C@@H]2OCc2ccccc2)O[C@H](CO)[C@H]1OCc1ccccc1 [8a (from 5a, -(CH2)4-)]","ring closure, overall yield","28-membered ring, 1,2-dichloroethane, 4.0 h",12%
"C=CCCCCO[C@H]1[C@H](OCc2ccccc2)[C@@H](OC(=O)c2ccccc2)[C@H](OC[C@H]2O[C@@H](OCCCCCN(Cc3ccc(OC)cc3[N+](=O)[O-])C(=O)OCc3ccccc3)[C@H](OC(=O)c3ccccc3)[C@@H](OC(=O)c3ccccc3)[C@@H]2OCc2ccccc2)O[C@@H]1CO[C@@H]1O[C@H](CO[C@@H]2O[C@H](CO[C@@H]3O[C@H](CO[C@@H]4O[C@H](CO)[C@@H](OCc5ccccc5)[C@H](OCCCC=C)[C@H]4OC(=O)c4ccccc4)[C@@H](OCc4ccccc4)[C@H](OC(=O)c4ccccc4)[C@H]3OC(=O)c3ccccc3)[C@@H](OCc3ccccc3)[C@H](OC(=O)c3ccccc3)[C@H]2OC(=O)c2ccccc2)[C@@H](OCc2ccccc2)[C@H](OC(=O)c2ccccc2)[C@H]1OC(=O)c1ccccc1 [8f (from 5f, -(CH2)9-)]","ring closure, overall yield","33-membered ring, 1,2-dichloroethane, 3.0 h",14%
"C=CCCCCO[C@@H]1[C@@H](OC(=O)c2ccccc2)[C@H](OC[C@H]2O[C@@H](OC[C@H]3O[C@@H](OC[C@H]4O[C@@H](OC[C@H]5O[C@@H](OC[C@H]6O[C@@H](OCCCCCN(Cc7ccc(OC)cc7[N+](=O)[O-])C(=O)OCc7ccccc7)[C@H](OC(=O)c7ccccc7)[C@@H](OC(=O)c7ccccc7)[C@@H]6OCc6ccccc6)[C@H](OC(=O)c6ccccc6)[C@@H](OCc6ccccc6)[C@@H]5OCC=C)[C@H](OC(=O)c5ccccc5)[C@@H](OC(=O)c5ccccc5)[C@@H]4OCc4ccccc4)[C@H](OC(=O)c4ccccc4)[C@@H](OC(=O)c4ccccc4)[C@@H]3OCc3ccccc3)[C@H](OC(=O)c3ccccc3)[C@@H](OC(=O)c3ccccc3)[C@@H]2OCc2ccccc2)O[C@H](CO)[C@H]1OCc1ccccc1 [8d (from 5d, -(CH2)7-)]","ring closure, overall yield","31-membered ring, 1,2-dichloroethane, 2.0 h",13%
